Reference: patent US20260130879A1 (IMMUNIC AG, priority 2023, published 2026)
pEC50, pIC50: −log10 of the molar value.

What was measured:
hDHODH = target: T1, hDHODH (Homo sapiens, UniProt Q02127); experiment: in vitro inhibition of hDHODH; type: biochemical
T1 construct: measured using an N-terminally truncated recombinant hDHODH enzyme
Description: The in vitro inhibition of hDHODH was measured using an N-terminally truncated recombinant hDHODH enzyme. Briefly, the hDHODH concentration was adjusted in a way that an average slope of approximately 0.2 AU/min served as the positive control (e.g., without inhibitor). The assay mixture contained 60 μM 2,6-dichloroindophenol, 50 μM decylubiquinone and 100 μM dihydroorotate. The hDHODH enzyme with or without at least six different concentrations of the compounds was added and measurements were performed in 50 mM TrisHCl, 150 mM KCl and 0.1% Triton X-100 at pH 8.0 and at 30° C. The reaction was started by adding dihydroorotate and measuring the absorption at 600 nm for 2 min. For the determination of the IC50 values, each data point was recorded in triplicate.

human Nurr1 = human Nurr1 (Homo sapiens, UniProt P43354); experiment: Hybrid Gal4-Nurr1 reporter gene assay in HEK293T cells
Sequence of human Nurr1 (P43354 360-595 limits assumed): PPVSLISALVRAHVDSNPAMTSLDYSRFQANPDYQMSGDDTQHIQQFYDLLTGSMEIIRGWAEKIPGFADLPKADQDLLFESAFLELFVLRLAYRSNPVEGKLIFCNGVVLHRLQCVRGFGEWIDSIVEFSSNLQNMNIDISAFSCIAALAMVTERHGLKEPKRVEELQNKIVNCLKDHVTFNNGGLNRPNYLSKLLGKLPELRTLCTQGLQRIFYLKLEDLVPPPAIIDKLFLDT
Description: Nurr1 modulation was determined in a Gal4 hybrid reporter gene assays in HEK293T cells (German Collection of Microorganisms and Cell Culture GmbH, DSMZ) using pFR-Luc (Stratagene, La Jolla, CA, USA; reporter), pRL-SV40 (Promega, Madison, WI, USA: internal control) and pFA-CMV-hNurr1-LBD, coding for the hinge region and ligand binding domain of the canonical isoform of human Nurr1. Cells were cultured in Dulbecco's modified Eagle's medium (DMEM), high glucose supplemented with 10% fetal calf serum (FCS), sodium pyruvate (1 mM), penicillin (100 U/mL), and streptomycin (100 μg/mL) at 37° C., and 5% CO2 and seeded in 96-well plates (3×10+ cells/well). […] Firefly luminescence was divided by Renilla luminescence and multiplied by 1000 resulting in relative light units (RLU) to normalize for transfection efficiency and cell growth. Fold activation was obtained by dividing the mean RLU of test compound by the mean RLU of the untreated control. All samples were tested in at least three biologically independent experiments in duplicates. For dose-response curve fitting and calculation of EC50 values, the equation “[Agonist] versus response (three parameters)” was used in GraphPad Prism (version 7.00, GraphPad Software, La Jolla, CA, USA).
Similarly as described in Part A, the Nurr1 modulation was determined in a Gal4 hybrid reporter gene assay at a fixed concentration of 3 μM.

BDNF = experiment: Induction of BDNF in LPS-stimulated human PBMCs (ELISA); type: cell-based; details: 3 μM, supernatant 14 h

T1 sequence (Q02127 29-395): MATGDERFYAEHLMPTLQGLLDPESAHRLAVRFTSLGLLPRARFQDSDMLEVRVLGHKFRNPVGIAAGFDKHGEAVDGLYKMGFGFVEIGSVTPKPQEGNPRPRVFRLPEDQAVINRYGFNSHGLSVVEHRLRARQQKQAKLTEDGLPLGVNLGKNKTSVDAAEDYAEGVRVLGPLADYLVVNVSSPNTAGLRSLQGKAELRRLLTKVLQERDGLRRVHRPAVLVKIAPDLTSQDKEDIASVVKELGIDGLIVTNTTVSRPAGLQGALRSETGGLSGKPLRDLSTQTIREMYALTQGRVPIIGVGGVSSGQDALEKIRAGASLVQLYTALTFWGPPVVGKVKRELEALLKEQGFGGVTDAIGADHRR

| SMILES | pIC50 (hDHODH) | pEC50 (human Nurr1) | Nurr1 agonism max. fold activation (range) (human Nurr1) | further results |
| --- | --- | --- | --- | --- |
| [2H]C([2H])([2H])Oc1cccc(-c2c(F)c(F)c(NC(=O)c3ccsc3C(=O)NCCO)c(F)c2F)c1 [6/40] | < 5.00 | 5.00 to 6.00 | + (+: ≥1.3-fold to <2-fold) |  |
| C/C(O)=C(\C#N)C(=O)Nc1ccc(C(F)(F)F)cc1 [teriflunomide, reference compound] |  |  |  | BDNF production (BDNF): no effect |
| [2H]C([2H])([2H])Oc1cccc(-c2c(F)cc(NC(=O)c3ccsc3C(=O)O)cc2F)c1 [6/8] |  |  |  | Fold Activation @ 3 μM (human Nurr1): +++ (+++: ≥3-fold) |
| C#CCOc1cccc(-c2ccc(NC(=O)c3cscc3C(N)=O)cc2)c1 [6/54] | < 5.00 | 5.00 to 6.00 | + (+: ≥1.3-fold to <2-fold) |  |
| [2H]C([2H])([2H])Oc1cccc(-c2ccc(NC(=O)c3cscc3C(=O)O)cc2)c1 [6/50] | 6.00 to 7.00 | > 7.00 | ++ (++: ≥2-fold to <3-fold) |  |
| [2H]C([2H])([2H])Oc1cccc(-c2cc(F)c(NC(=O)C3=C(C(=O)NOCC)CCC3)c(F)c2)c1 [2/18] |  | 5.00 to 6.00 | ++ (++: ≥2-fold to <3-fold) |  |
| [2H]C([2H])([2H])Oc1cccc(-c2ccc(NC(=O)C3=C(C(=O)O)CCC3)c3cnccc23)c1 [2/13] |  | 5.00 to 6.00 | +++ (+++: ≥3-fold) |  |
| C#CCOc1cccc(-c2ccc(NC(=O)c3cscc3C(=O)NCC)c(F)c2)c1 [6/58] | < 5.00 | 5.00 to 6.00 | + (+: ≥1.3-fold to <2-fold) |  |
| [2H]C([2H])([2H])Oc1ccccc1-c1c(F)c(F)c(NC(=O)C2=C(C(=O)O)CSC2)c(F)c1F [6/7] |  |  |  | Fold Activation @ 3 μM (human Nurr1): ++ (++: ≥2-fold to <3-fold) |
| [2H]C([2H])([2H])Oc1cccc(-c2cc(F)c(NC(=O)C3=C(C(=O)NS(=O)(=O)C4(C)CC4)CCC3)c(F)c2)c1 [2/21] |  | 5.00 to 6.00 | ++ (++: ≥2-fold to <3-fold) |  |
| [2H]C([2H])([2H])Oc1cccc(-c2c(F)c(F)c(NC(=O)c3ccsc3C(=O)NCC)c(F)c2F)c1 [6/15] | < 5.00 | 6.00 to 7.00 | + (+: ≥1.3-fold to <2-fold) |  |
| C#CCOc1cccc(-c2c(F)c(F)c(NC(=O)c3ccsc3C(=O)NC)c(F)c2F)c1 [6/18] |  |  |  | Fold Activation @ 3 μM (human Nurr1): + (+: ≥1.3-fold to <2-fold) |
| [2H]C([2H])([2H])Oc1cccc(-c2cc(F)c(NC(=O)c3ccsc3C(=O)O)c(F)c2)c1 [2/26] |  |  |  | Fold Activation @ 3 μM (human Nurr1): + (+: ≥1.3-fold to <2-fold) |
| C#CCOc1cccc(-c2ccc(NC(=O)c3cscc3C(=O)NCC)cc2)c1 [6/57] | < 5.00 | 5.00 to 6.00 | + (+: ≥1.3-fold to <2-fold) |  |
| [2H]C([2H])([2H])Oc1cccc(-c2c(F)c(F)c(NC(=O)c3ccccc3C(=O)O)c(F)c2F)c1 [6/20] | > 7.00 | > 7.00 |  |  |
| [2H]C([2H])([2H])Oc1cccc(-c2cc(F)c(NC(=O)C3=C(C(=O)NOCCO)CCC3)c(F)c2)c1 [2/24] |  | 5.00 to 6.00 | + (+: ≥1.3-fold to <2-fold) |  |
| [2H]C(F)(F)Oc1cccc(-c2ccc(NC(=O)C3=C(C(=O)O)CCC3)c(F)c2)c1 [2/2] | 5.00 to 6.00 | 6.00 to 7.00 | +++ (+++: ≥3-fold) |  |
| [2H]c1c([2H])c([2H])c(-c2c(F)c(F)c(NC(=O)C3=C(C(N)=O)CC(F)(F)C3)c(F)c2F)c([2H])c1[2H] [6/46] | 5.00 to 6.00 | 6.00 to 7.00 |  |  |
| C#CCOc1cccc(-c2c(F)c(F)c(NC(=O)c3ccsc3C(=O)O)c(F)c2F)c1 [6/17] |  |  |  | Fold Activation @ 3 μM (human Nurr1): +++ (+++: ≥3-fold) |
| [2H]C([2H])([2H])Oc1cccc(-c2cc(F)c(NC(=O)C3=C(C(=O)NOC)CCC3)c(C#N)c2)c1 [2/29] |  |  |  | Fold Activation @ 3 μM (human Nurr1): + (+: ≥1.3-fold to <2-fold) |
| [2H]c1cc([2H])c(-c2ccc(NC(=O)C3=C(C(=O)O)CCC3)c(F)c2)c([2H])c1O [2/4] |  | 6.00 to 7.00 | + (+: ≥1.3-fold to <2-fold) |  |
| [2H]C([2H])([2H])Oc1cccc(C23CCC(NC(=O)C4=C(C(=O)O)CCC4)(CC2)CC3)c1 [reference compound] | < 4.30 | < 5.00 |  |  |
| [N-]=[N+]=NCCOc1cccc(-c2ccc(NC(=O)C3=C(C(=O)O)CCC3)c(F)c2)c1 [4/1] |  | > 7.00 | +++ (+++: ≥3-fold) |  |
| C#CCOc1cccc(-c2ccc(NC(=O)c3cscc3C(=O)O)c(F)c2)c1 [6/52] | 6.00 to 7.00 | > 7.00 | ++ (++: ≥2-fold to <3-fold) |  |

| SMILES | pIC50 (hDHODH) | pEC50 (human Nurr1) | Nurr1 agonism max. fold activation (range) (human Nurr1) | further results |
| --- | --- | --- | --- | --- |
| [2H]c1c([2H])c([2H])c(-c2c(F)c(F)c(NC(=O)c3ccsc3C(N)=O)c(F)c2F)c([2H])c1[2H] [6/45] | 5.00 to 6.00 | 6.00 to 7.00 |  |  |
| [2H]C([2H])([2H])Oc1cccc(-c2c(F)c(F)c(NC(=O)c3cscc3C(=O)O)c(F)c2F)c1 [6/3] |  |  |  | Fold Activation @ 3 μM (human Nurr1): ++ (++: ≥2-fold to <3-fold) |
| [2H]C([2H])([2H])Oc1cccc(-c2c(F)c(F)c(NC(=O)C3=C(C(=O)O)CCC3)c(F)c2F)c1 [2/10] |  | > 7.00 | + (+: ≥1.3-fold to <2-fold) |  |
| [2H]c1cc([2H])c(-c2c(F)c(F)c(NC(=O)c3ccsc3C(=O)O)c(F)c2F)c([2H])c1OC(F)(F)F [2/25] |  |  |  | Fold Activation @ 0.3 μM (human Nurr1): +++ (+++: ≥3-fold); Fold Activation @ 3 μM (human Nurr1): ++ (++: ≥2-fold to <3-fold) |
| [2H]C([2H])([2H])Oc1cccc(-c2ccc(NC(=O)c3cscc3C(=O)NCC)cc2)c1 [6/56] | < 5.00 | 5.00 to 6.00 | +++ (+++: ≥3-fold) |  |
| [2H]C([2H])([2H])Oc1ccccc1-c1c(F)c(F)c(NC(=O)C2=C(C(=O)O)CCC2)c(F)c1F [2/27] |  |  |  | Fold Activation @ 3 μM (human Nurr1): +++ (+++: ≥3-fold) |
| [2H]C([2H])([2H])Oc1cccc(-c2cc(F)c(NC(=O)C3=C(C(=O)NS(=O)(=O)C(F)F)CCC3)c(F)c2)c1 [2/22] |  | 5.00 to 6.00 | ++ (++: ≥2-fold to <3-fold) |  |
| [2H]C([2H])([2H])Oc1cccc(-c2c(F)c(F)c(NC(=O)C3=C(C(=O)N(C)C)CC(F)(F)C3)c(F)c2F)c1 [6/27] | 5.00 to 6.00 | 5.00 to 6.00 | + (+: ≥1.3-fold to <2-fold) |  |
| [2H]C([2H])([2H])Oc1cccc(-c2ccc(NC(=O)c3cscc3C(N)=O)cc2)c1 [6/53] | < 5.00 | 6.00 to 7.00 | + (+: ≥1.3-fold to <2-fold) |  |
| [2H]C([2H])([2H])Oc1cccc(-c2c(F)c(F)c(NC(=O)c3c(C(=O)O)sc(C)c3C)c(F)c2F)c1 [6/13] | > 7.00 | > 7.00 | ++ (++: ≥2-fold to <3-fold) |  |
| O=C(O)C1=C(C(=O)Nc2c(F)cc(-c3cccc4c3OCO4)cc2F)CCC1 [reference compound] |  | < 5.00 |  |  |
| COc1cccc(-c2ccc(NC(=O)C3=C(C(=O)NO)CCC3)c(F)c2)c1 [6/10] |  |  |  | Fold Activation @ 3 μM (human Nurr1): ++ (++: ≥2-fold to <3-fold) |
| [2H]C([2H])([2H])Oc1cccc(-c2c(F)c(F)c(NC(=O)c3ccsc3C(=O)NCC#N)c(F)c2F)c1 [6/39] | 6.00 to 7.00 | 5.00 to 6.00 | ++ (++: ≥2-fold to <3-fold) |  |
| [2H]C([2H])([2H])Oc1cccc(-c2c(F)c(F)c(NC(=O)c3ccsc3C(N)=O)c(F)c2F)c1 [6/14] | 5.00 to 6.00 | 6.00 to 7.00 | + (+: ≥1.3-fold to <2-fold) |  |
| [2H]C([2H])([2H])Oc1cccc(-c2cc(F)c(NC(=O)C3=C(/C(N)=N/O)CCC3)c(F)c2)c1 [2/20] |  | 6.00 to 7.00 | ++ (++: ≥2-fold to <3-fold) |  |
| [2H]C([2H])([2H])Oc1cccc(-c2cc(F)c(NC(=O)C3=C(C(=O)NOCCF)CCC3)c(F)c2)c1 [2/23] |  | 6.00 to 7.00 | + (+: ≥1.3-fold to <2-fold) |  |
| [2H]C([2H])([2H])Oc1cccc(-c2ccc(N(C)C(=O)C3=C(C(=O)O)CCC3)c(F)c2)c1 [reference compound] |  | < 5.00 |  |  |
| [2H]C([2H])([2H])Oc1ccccc1-c1c(F)c(F)c(NC(=O)c2cscc2C(=O)O)c(F)c1F [6/5] | > 8.00 | > 7.00 | + (+: ≥1.3-fold to <2-fold) |  |
| [2H]C([2H])([2H])Oc1cccc(-c2c(F)c(F)c(NC(=O)c3ccsc3C(=O)O)c(F)c2F)c1 [6/2] |  |  |  | Fold Activation @ 3 μM (human Nurr1): ++ (++: ≥2-fold to <3-fold) |
| [2H]C([2H])([2H])Oc1cccc(-c2c(F)c(F)c(NC(=O)c3ccsc3C(=O)NCC(F)(F)F)c(F)c2F)c1 [6/44] |  |  |  | Fold Activation @ 3 μM (human Nurr1): + (+: ≥1.3-fold to <2-fold) |
| C#CCOc1cccc(-c2ccc(NC(=O)c3cscc3C(=O)O)cc2)c1 [6/51] | 5.00 to 6.00 | 6.00 to 7.00 | +++ (+++: ≥3-fold) |  |
| [2H]C([2H])([2H])Oc1cccc(-c2c(F)c(F)c(NC(=O)C3=C(C(=O)O)CC(F)(F)C3)c(F)c2F)c1 [6/1] |  |  |  | Fold Activation @ 3 μM (human Nurr1): ++ (++: ≥2-fold to <3-fold) |
| [2H]C([2H])([2H])Oc1cccc(-c2cc(F)c(NC(=O)C3=C(C(=O)O)CCC3)c(OC([2H])([2H])[2H])c2)c1 [2/31] |  | 6.00 to 7.00 | + (+: ≥1.3-fold to <2-fold) |  |
| [2H]C([2H])([2H])Oc1cccc(-c2c(F)c(F)c(NC(=O)c3ccsc3C(=O)NCC(F)F)c(F)c2F)c1 [6/41] |  |  |  | Fold Activation @ 0.3 μM (human Nurr1): + (+: ≥1.3-fold to <2-fold) |
